Results reported in ChEMBL document CHEMBL3988442, “University of Dundee, Small-Polar-MMV Screening Library” (2021).
“And” between values parts separate entries of the source, which are not always exact repeats. Equal entries are not always repeated.

Columns and labels:
Assay type in all cases: functional
[1] = target: T1, Arginase-2, mitochondrial (Homo sapiens, UniProt P78540); test: in vitro enzyme assay to detect the production of urea directly proportional to the activity of Arginase II
T1 sequence (P78540 whole entry): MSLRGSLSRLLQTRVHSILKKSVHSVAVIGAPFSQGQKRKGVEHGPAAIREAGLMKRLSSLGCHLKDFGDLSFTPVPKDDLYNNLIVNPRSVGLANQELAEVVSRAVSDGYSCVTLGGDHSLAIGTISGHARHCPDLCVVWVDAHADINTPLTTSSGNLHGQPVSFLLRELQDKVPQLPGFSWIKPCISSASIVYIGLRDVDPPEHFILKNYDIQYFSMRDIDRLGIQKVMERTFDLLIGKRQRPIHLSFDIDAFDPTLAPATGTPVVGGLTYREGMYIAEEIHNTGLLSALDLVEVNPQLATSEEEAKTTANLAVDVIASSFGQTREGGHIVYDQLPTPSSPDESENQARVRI

[2] = target: Chromo domain-containing protein 1 (Saccharomyces cerevisiae (strain ATCC 204508 / S288c) (Baker's yeast), UniProt P32657); test: ScCHD-1 Enzyme Inhibition Assay
Histidine--tRNA ligase [3] = target: T2, Histidine--tRNA ligase (Trypanosoma cruzi (strain CL Brener), UniProt Q4DA54); test: Trypanosoma cruzi histidyl tRNA synthetase (Tc-HisRS)
T2 sequence (Q4DA54 whole entry): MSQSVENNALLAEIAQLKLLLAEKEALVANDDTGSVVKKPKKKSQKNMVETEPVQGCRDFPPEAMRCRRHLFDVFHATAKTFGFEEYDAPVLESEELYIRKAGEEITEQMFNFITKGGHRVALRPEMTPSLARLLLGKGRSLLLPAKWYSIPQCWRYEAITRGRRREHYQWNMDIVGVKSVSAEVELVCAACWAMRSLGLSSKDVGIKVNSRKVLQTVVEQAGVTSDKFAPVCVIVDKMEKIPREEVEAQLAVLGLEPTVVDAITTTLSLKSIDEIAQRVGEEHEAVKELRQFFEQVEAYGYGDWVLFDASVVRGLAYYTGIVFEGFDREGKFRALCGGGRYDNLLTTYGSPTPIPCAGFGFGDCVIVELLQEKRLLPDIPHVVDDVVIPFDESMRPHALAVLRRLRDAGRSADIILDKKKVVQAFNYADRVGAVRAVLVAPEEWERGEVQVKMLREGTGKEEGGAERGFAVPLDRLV

[4] = target: Protein translocase subunit SecA (Escherichia coli (strain K12), UniProt P10408); test: Assay to Identify E. coli SecA ATPase Inhibitors
Lysine--tRNA ligase = Lysine--tRNA ligase (Plasmodium falciparum (isolate 3D7), UniProt Q8IDJ8); test: Pf-KRS-1 (Lysyl-RNA Synthetase-1, KRS-1, cytosolic KRS) from Plasmodium falciparum. Inhibitor assay, 384 well plate, luminescence read.
Histidine--tRNA ligase [5] = target: T3, Histidine--tRNA ligase (Leishmania infantum, UniProt A4I591); test: Leishmania infantum Histidine tRNA synthetase (LdHisRS)
T3 sequence (A4I591 whole entry): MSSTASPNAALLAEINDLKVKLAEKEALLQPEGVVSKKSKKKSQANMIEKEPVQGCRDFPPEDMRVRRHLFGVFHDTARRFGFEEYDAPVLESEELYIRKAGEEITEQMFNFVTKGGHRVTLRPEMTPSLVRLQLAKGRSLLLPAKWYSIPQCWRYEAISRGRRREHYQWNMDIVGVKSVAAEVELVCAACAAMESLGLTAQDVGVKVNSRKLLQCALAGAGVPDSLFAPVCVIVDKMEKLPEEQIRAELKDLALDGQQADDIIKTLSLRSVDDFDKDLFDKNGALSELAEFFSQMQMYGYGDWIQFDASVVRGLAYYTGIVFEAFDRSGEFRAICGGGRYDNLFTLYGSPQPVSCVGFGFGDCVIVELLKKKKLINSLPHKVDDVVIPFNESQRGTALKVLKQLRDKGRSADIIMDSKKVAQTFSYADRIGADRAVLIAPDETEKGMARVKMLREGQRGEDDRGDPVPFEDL

[6] = target: T4, Ubiquitin-activating enzyme e1, putative (Leishmania donovani (strain BPK282A1), UniProt E9BSI1); test: Leishmania donovani Ubiquitin Activating Enzyme (LdE1)
T4 sequence (E9BSI1 whole entry): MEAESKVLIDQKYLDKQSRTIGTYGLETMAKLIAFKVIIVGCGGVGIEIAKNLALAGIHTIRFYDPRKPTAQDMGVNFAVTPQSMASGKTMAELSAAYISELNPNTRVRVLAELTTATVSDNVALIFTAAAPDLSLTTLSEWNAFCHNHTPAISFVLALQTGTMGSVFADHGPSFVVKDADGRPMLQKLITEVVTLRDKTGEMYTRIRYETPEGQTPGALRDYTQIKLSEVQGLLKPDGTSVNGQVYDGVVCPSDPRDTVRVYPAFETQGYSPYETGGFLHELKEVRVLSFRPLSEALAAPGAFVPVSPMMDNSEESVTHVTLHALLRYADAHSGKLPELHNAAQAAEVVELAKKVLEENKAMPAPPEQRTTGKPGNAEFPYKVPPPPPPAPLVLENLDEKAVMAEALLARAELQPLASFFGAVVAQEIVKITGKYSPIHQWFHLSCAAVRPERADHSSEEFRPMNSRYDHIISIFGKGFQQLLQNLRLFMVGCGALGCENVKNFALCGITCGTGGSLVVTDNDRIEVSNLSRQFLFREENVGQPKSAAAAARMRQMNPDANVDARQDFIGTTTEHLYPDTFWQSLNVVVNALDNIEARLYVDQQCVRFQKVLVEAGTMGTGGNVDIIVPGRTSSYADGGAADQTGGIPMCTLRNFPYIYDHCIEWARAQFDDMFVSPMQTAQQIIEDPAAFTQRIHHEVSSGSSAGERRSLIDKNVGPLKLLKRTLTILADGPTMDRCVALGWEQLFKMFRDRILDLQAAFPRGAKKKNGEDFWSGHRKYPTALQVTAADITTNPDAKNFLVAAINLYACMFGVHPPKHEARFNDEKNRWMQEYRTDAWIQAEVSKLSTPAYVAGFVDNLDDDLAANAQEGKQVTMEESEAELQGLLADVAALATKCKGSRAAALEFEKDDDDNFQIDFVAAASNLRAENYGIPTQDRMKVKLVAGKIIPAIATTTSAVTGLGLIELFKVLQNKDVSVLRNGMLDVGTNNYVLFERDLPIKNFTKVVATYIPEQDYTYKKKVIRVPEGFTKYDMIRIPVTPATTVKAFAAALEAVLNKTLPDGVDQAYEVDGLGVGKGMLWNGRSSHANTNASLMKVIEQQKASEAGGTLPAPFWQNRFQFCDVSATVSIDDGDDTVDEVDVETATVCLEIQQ

ClpP1P2 = ClpP1P2 (Mycobacterium tuberculosis (strain ATCC 25618 / H37Rv), UniProt P9WPC3+P9WPC5); test: in vitro assay to detect presence of AMC directly proportional to the activity of ClpP1P2. GHDDI collaboration.
[7] = target: Polyketide synthase Pks13 (Mycobacterium tuberculosis (strain ATCC 25618 / H37Rv), UniProt I6X8D2); test: Mycobacterium tuberculosis Polyketide synthase 13 Thioesterase (PKS13)
Polyketide synthase Pks13, sequence (I6X8D2 whole entry): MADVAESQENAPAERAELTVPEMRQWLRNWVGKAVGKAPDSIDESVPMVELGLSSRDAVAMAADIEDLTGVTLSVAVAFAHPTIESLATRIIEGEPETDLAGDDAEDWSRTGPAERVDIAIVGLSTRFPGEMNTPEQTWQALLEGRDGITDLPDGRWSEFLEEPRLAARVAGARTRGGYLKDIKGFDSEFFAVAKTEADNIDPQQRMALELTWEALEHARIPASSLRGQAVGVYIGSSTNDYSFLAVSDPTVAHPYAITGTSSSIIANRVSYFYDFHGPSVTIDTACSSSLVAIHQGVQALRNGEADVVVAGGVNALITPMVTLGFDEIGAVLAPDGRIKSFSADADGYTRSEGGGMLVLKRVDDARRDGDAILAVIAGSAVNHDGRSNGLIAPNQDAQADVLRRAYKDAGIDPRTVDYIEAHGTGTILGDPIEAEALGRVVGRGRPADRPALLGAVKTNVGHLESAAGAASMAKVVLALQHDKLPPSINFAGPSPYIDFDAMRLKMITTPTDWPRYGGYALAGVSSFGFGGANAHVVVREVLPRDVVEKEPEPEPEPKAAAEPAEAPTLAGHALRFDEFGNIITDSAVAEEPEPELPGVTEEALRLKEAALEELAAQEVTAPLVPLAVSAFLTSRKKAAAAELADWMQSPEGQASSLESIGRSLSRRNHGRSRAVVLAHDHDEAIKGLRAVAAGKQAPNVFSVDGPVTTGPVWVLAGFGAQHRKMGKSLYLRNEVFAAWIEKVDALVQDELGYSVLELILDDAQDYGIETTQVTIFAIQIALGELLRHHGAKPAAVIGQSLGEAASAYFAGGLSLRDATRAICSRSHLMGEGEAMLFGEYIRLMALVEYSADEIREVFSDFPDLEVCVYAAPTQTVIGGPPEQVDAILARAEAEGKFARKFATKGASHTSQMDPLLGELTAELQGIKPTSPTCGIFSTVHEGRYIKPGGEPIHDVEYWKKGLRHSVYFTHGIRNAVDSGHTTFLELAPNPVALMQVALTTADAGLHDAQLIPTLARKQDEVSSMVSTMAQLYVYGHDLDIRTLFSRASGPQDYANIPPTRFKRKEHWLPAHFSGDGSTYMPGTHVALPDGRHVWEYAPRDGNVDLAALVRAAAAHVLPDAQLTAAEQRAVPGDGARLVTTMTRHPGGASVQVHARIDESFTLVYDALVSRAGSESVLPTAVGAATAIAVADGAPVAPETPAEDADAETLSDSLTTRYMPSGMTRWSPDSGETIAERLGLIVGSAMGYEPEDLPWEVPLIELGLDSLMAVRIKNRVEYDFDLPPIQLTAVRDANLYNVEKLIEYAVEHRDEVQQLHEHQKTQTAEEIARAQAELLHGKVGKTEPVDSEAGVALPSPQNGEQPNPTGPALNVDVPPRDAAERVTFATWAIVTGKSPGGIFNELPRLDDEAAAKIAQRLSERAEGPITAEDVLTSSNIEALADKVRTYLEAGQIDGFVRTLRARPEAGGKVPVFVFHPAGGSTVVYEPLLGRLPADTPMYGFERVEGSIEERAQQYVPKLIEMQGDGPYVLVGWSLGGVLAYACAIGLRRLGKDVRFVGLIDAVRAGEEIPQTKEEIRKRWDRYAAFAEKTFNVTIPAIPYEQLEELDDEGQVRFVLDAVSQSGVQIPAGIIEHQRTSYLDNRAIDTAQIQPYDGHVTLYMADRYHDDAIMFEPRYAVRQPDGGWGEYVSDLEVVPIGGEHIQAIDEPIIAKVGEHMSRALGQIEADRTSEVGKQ

ClpP1P2, sequence (P9WPC5 whole entry): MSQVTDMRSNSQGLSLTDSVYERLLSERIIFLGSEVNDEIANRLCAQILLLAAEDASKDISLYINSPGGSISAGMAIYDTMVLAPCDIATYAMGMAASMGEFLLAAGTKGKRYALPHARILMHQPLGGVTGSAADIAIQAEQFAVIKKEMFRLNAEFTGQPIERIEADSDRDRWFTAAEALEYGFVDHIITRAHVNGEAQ
ClpP1P2, sequence (P9WPC3 whole entry): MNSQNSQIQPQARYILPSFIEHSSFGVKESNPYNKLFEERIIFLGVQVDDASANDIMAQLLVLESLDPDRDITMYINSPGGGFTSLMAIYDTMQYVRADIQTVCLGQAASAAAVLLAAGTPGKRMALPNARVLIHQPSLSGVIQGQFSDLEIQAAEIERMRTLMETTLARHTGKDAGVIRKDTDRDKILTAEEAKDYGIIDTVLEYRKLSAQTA
Protein translocase subunit SecA, sequence (P10408 whole entry): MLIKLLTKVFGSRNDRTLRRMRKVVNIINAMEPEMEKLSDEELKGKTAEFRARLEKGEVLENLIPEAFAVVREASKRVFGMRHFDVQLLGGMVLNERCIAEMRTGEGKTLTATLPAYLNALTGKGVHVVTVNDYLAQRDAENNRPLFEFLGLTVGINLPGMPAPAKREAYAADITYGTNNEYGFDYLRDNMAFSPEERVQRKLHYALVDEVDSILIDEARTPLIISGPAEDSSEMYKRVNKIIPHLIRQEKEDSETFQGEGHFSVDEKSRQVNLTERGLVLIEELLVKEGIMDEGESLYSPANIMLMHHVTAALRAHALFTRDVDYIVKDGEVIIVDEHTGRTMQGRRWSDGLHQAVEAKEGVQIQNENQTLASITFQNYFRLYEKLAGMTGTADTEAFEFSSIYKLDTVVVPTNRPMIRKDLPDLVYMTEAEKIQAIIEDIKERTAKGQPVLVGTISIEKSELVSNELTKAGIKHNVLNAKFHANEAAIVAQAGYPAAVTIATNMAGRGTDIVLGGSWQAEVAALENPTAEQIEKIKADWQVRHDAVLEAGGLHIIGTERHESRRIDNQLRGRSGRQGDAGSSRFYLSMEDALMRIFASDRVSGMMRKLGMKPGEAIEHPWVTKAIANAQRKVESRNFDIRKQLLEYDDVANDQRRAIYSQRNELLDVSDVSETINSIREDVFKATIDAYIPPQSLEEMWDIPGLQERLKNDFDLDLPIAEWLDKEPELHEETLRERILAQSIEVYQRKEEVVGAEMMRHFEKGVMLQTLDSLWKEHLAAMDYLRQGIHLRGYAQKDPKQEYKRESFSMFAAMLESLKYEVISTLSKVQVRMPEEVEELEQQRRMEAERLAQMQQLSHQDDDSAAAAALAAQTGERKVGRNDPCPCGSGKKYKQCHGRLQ
Lysine--tRNA ligase, sequence (Q8IDJ8 whole entry): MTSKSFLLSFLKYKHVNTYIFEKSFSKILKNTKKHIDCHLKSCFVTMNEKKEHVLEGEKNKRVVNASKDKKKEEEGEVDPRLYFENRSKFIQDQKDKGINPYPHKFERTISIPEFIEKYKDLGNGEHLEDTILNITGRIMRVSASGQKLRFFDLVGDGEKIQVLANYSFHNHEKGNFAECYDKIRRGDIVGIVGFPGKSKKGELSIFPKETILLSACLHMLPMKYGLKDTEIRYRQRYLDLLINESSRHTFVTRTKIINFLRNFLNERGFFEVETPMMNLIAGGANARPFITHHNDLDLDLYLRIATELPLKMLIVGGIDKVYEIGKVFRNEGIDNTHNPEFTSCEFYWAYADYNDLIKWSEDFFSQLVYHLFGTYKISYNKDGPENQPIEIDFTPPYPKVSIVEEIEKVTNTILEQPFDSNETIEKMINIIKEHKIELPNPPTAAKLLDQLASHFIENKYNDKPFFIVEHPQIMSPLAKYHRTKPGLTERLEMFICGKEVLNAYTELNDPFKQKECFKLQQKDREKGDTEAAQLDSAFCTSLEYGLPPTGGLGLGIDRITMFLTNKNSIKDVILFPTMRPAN
Chromo domain-containing protein 1, sequence (P32657 whole entry, the tested form may be a part): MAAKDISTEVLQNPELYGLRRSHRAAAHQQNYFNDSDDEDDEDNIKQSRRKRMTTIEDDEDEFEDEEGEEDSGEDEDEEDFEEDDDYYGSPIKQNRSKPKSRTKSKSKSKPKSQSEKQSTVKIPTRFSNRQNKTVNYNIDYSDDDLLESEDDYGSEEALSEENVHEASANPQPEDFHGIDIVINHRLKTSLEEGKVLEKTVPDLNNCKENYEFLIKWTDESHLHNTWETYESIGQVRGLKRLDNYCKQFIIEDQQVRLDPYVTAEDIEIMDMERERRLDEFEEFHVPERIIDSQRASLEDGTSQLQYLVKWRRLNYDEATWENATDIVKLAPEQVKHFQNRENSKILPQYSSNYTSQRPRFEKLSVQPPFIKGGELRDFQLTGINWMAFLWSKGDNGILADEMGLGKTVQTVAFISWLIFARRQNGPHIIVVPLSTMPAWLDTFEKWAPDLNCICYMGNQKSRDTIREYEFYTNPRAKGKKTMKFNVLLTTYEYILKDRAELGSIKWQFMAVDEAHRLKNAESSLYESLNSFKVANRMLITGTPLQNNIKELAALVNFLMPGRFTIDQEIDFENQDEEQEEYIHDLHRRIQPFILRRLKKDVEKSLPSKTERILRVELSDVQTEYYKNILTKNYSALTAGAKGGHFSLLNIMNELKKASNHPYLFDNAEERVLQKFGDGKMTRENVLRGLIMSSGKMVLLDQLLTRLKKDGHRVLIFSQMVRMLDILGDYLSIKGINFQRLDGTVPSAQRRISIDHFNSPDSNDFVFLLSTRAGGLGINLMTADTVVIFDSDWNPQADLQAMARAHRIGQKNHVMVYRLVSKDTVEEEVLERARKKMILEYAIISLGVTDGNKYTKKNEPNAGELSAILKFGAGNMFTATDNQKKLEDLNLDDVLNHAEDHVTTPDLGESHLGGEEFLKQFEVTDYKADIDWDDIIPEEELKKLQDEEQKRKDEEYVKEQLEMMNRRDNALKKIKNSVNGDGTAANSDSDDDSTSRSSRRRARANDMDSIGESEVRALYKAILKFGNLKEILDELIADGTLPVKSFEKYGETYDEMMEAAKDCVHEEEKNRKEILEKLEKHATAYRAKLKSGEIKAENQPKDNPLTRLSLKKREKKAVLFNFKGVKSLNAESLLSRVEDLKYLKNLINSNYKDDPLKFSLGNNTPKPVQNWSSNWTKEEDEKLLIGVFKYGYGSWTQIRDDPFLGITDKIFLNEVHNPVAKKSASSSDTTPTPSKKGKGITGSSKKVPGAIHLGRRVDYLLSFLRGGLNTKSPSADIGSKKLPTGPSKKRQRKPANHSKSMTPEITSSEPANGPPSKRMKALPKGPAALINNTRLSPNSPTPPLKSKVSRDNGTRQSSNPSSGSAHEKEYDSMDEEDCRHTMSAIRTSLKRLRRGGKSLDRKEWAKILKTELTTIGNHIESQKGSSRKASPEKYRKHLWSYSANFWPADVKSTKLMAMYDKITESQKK

Row | SMILES | IC50 (Histidine--tRNA ligase [3]) | IC50 [4] | IC50 (Lysine--tRNA ligase) [µM] | IC50 [6] | IC50 (ClpP1P2) [µM] | further results
1 | O=C(COc1cccc(Br)c1)N1CCN(c2nccs2)CC1 | – | – | – | – | – | IC50 [1]: > 100 µM; IC50 [2]: > 29.5 µM
2 | O=C1CC(c2ccccc2Br)c2sc(N3CCOCC3)nc2N1 (stereo not drawn) | 6.96 µM and 6.21 µM | > 100 µM | > 50.1 | > 100 µM and 92.2 µM | – | IC50 (Histidine--tRNA ligase [5]): 1130 nM and 1440 nM
3 | CC1(C)OCC(CNC(=O)c2cnn(-c3cc(Cl)ccc3Cl)c2N)O1 (stereo not drawn) | – | > 100 µM | – | – | – | –
4 | COCCn1ccc2cc(NC(C)=O)ccc21 | – | > 100 µM | – | – | – | –
5 | O=c1[nH]c2c(c(=O)n1C1CCCCC1)CCC2Nc1ccccc1Cl (stereo not drawn) | – | – | 14 | – | – | IC50 [1]: > 100 µM
6 | COCc1c(C(=O)NC2CCCC2)nnn1-c1ccc(C)cc1 | – | > 100 µM | – | – | – | –
7 | CC(C)Oc1ccccc1C1CC(=O)Nc2nc(N3CCOCC3)sc21 (stereo not drawn) | 3.93 µM and 5.46 µM | 41.6 µM and 34.6 µM | > 50.1 | 86.4 µM and 89.7 µM | > 100 | –
8 | COc1cccc(C2CC(=O)Nc3nc(N4CCCCC4)sc32)c1OC (stereo not drawn) | 2.42 µM and 4.13 µM | 22.7 µM and 22.6 µM | > 50.1 | 81.5 µM and 75 µM | > 100 | IC50 (Histidine--tRNA ligase [5]): 423 nM and 346 nM
9 | CNc1nc2c(s1)C(c1cccc(Cl)c1Cl)CC(=O)N2 (stereo not drawn) | 10.4 µM and 11.2 µM | 37.8 µM and > 100 µM | > 50.1 | – | – | –
10 | COc1cccc(C2CC(=O)Nc3nc(N4CCOCC4)sc32)c1OC (stereo not drawn) | 5.22 µM and 4.5 µM | 10.6 µM and 8.05 µM | > 50.1 | 85.8 µM and 91 µM | – | IC50 (Histidine--tRNA ligase [5]): 1200 nM and 876 nM
11 | CNc1nc2c(s1)C(c1cc(Cl)ccc1F)CC(=O)N2 (stereo not drawn) | 19.4 µM and 20.6 µM | > 100 µM | > 50.1 | – | > 100 | –
12 | COCC(C)NC(=O)c1cn(C(C)(C)C)c2ncccc12 (stereo not drawn) | – | > 100 µM | – | – | – | –
13 | COc1ccc2c(c1)OCC(CNC(=O)c1ccncc1)C2 (stereo not drawn) | – | – | – | – | – | IC50 [1]: > 100 µM; IC50 [2]: > 29.5 µM
14 | COc1ccc(-n2ncc(C(=O)NCC3COC(C)(C)O3)c2N)cc1 (stereo not drawn) | – | > 100 µM | – | – | – | –
15 | O=C1CC(c2ccccc2C(F)(F)F)c2sc(N3CCOCC3)nc2N1 (stereo not drawn) | 10.8 µM and 16.3 µM | > 100 µM | > 50.1 | > 100 µM | > 100 | –
16 | CCn1cc(CN(C)S(=O)(=O)c2cnn(CC)c2C)c(C)n1 | – | > 100 µM | – | – | – | –
17 | COc1ccc(C2CC(=O)Nc3nc(N4CCOCC4)sc32)c(OC)c1 (stereo not drawn) | 2.24 µM and 2.8 µM | > 100 µM and 33.8 µM | > 50.1 | > 100 µM | > 100 | IC50 (Histidine--tRNA ligase [5]): 231 nM and 259 nM and 280 nM
18 | COC(=O)Cn1cccc(S(=O)(=O)N2CCC(C)CC2)c1=O | – | – | – | – | – | IC50 [1]: > 100 µM; IC50 [7]: > 100 µM
19 | CNc1nc2c(s1)C(c1ccccc1F)CC(=O)N2 (stereo not drawn) | 5.69 µM and 4.89 µM | > 100 µM and 93.8 µM | > 50.1 | – | > 100 | IC50 (Histidine--tRNA ligase [5]): 2320 nM and 2220 nM and 2270 nM and 2530 nM
